The text below walks through data of US20030035851A1, “Anti-cancer agents and method of use thereof” (priority 2001, published 2003).

In test [1] the test system is LNCaP cells. Description: TdT DNA strand break apoptosis assay, LNCaP. Format: cell-based, Human. The following applies: oridonin 13.7uM, 48 hours, FIG. 13. As to the method:
To determine apoptosis in cells, a quantitative assay for the detection of DNA breakage, using the terminal deoxyribonucleotide transferase (TdT) color reaction assay (TiterTACS, Trevigen, Gaithersburg, Md.), was employed. Cells were fixed in 1% ice-cold formaldehyde for 15 minutes and postfixed in 70% ethanol overnight at −20° C. DNA strand breaks were directly labeled with fluorescent (2′-deoxyuridine 5′-triphosphate) dUTP in the reaction catalyzed by exogenous terminal deoxynucleotidyltransferase using the APO-Direct kit (Phoenix Flow System, San Diego, Calif.) according to the protocol provided with the kit. The green (FITC) and red (PI) fluorescence intensities of cells subjected to labeling DNA strand breaks with the use of TdT were measured using a FACScan Flow Cytometer (Becton Dickinson Immunocytometry Systems, San Jose, Calif.). The data from 10^4 cells per sample were collected, stored and analyzed using CELL Quest software (Becton Dickinson and Co.).

A further test relates to DU-145 cell cycle. Kind of test: Cell cycle distribution by DNA flow cytometry, DU-145. Format: cell-based. The conditions noted are these: for increase in the number of cells arrested in the S phase compared to the control / cells arrested in the G2M phase / cell cycle arrest phase: DU-145; for increase in the number of cells arrested in the S phase compared to the control: FIG. 6.

The test system of the next test is MCF-7 cell cycle. Kind of test: Cell cycle distribution by DNA flow cytometry, MCF-7. Format: cell-based. The following applies: for cells arrested in the G1 phase: FIG. 7.
The next test relates to p53. Kind of test: Flow cytometric measurement of p53 protein in LNCaP. Format: cell-based, Human. The conditions noted are these: for increase in p53 concentration: FIG. 12. As to the method: (§1) To further verify the increase in Bax and the decrease in Bcl-2 proteins, and to determine the p53 protein levels induced by oridonin, flow cytometric measurement was performed to compare the results as obtained by Western blot. Following treatment with 3-9 μM of oridonin for 48 h, the LNCaP cells were trypsinized and washed with PBS. The cells were fixed in 1% formaldehyde in PBS on ice for 10 minutes and then permeabilized with 70% ethanol at −20° C. After fixation, the cells were rinsed with PBS, treated with a blocking solution containing 1% (w/v) bovine serum albumin (BSA) and 0.1% sodium azide in PBS (PBS-BSA) for 2 min at room temperature. The cells were subsequently added to a 100 μl aliquot of BSA/PBS solution containing 1:50 diluted primary antibody for Bcl-2, Bax (stained LNCaP) and p53. The mixtures were incubated at room temperature in the dark for 1 hr. The cells were subsequently washed twice with PBS-BSA buffer. The secondary antibody was added at 1:50 dilution for 30 minutes at room temperature in the dark, then counterstained for DNA by the addition of 1 ml of PI […] solution (final PI concentration 5 μg/ml) containing 100 μg/ml of RNAse A. Cellular fluorescence was measured with the ELITE ESP flow cytometer/cell sorter (Coulter Inc., Miami, Fla.) using the argon ion laser (emission at 488 nm). Fluorescence signals were collected using the standard configuration of the flow cytometer (green fluorescence for antibodies containing Bcl-2, Bax, and p53, and red fluorescence for DNA staining). 10,000 cells were analyzed per sample.
Background: A flow cytometer gives signals particle by particle.

Test [2] has as its system Bax and Bcl-2 protein expression. Kind of test: Western blot of Bax and Bcl-2 in LNCaP. Format: cell-based, Human. The following applies: 8.24 uM and 13.74 uM of oridonin, 48 hours, FIG. 11. The protocol:
To determine the Bcl-2:Bax ratio in oridonin-incubated LNCaP cells, a Western blotting procedure was performed. LNCaP cells were prepared such that one sample contained was incubated in the absence of oridonin, another sample in 8.24 uM of oridonin, and another sample in 13.74 uM of oridonin. The samples were incubated for 48 hours. Equal amounts of protein (10 micrograms) from LNCaP cell lysates were applied to a 10% SDS/PAGE (sodium dodecylsulfate/polyacrylamide gel electrophoresis) gel, and were then transferred to a PVDF membrane. The blots were probed with one of two primary antibodies comprising 1:100 Anti-Bax YTH-2D2 (Lot#3148E0, R&D, MN USA), and 1:100 Bcl-2 Oncoprotein (Clone 124, No. M0887), followed by second antibody exposure of 1:1000 Anti-mouse IgG-HRP (se-2005, Santa Cruz Biotechnology, USA) for 1 hour at […] temp. The immuno-binding signals were detected by the chemiluminescence method (ECL Western blotting system). The experiments were run in triplicates.
For orientation: Immunoblotting shows a protein as a band on a membrane.

Another test deals with LNCaP cell cycle. Description: Cell cycle distribution by DNA flow cytometry, LNCaP. Format: cell-based, Human. More on the design: cells arrested in the G1 phase: dose or concentration left out as unconfirmed. An excerpt: The cell cycle is the program for cell growth and cell proliferation (cell division). There are four phases of the cell cycle: G1, S, G2, and M. The G1 phase is characterized by gene expression and protein synthesis, and is regulated primarily by extracellular stimuli. During the S phase, the cell replicates its DNA. During the G2 phase, the cell undergoes growth and protein synthesis in preparation for cell division. The M phase is characterized by cytokinesis of the cell into two daughter cells.
The effect of oridonin and lupulone on LNCaP cells was determined by the following method. 2×10^6-4×10^6 cultured cells were exposed to varying concentrations (e.g., 1.5 microgram/milliliter (ug/ml)-3 ug/ml) of oridonin or lupulone for 24-48 hours in 12.5 cm^2 area flasks before being harvested. The cells were washed with phosphate buffered saline (PBS) and fixed in ice-cold 70% ethanol.
The distribution of cells in various stages of the cell cycle were determined by first staining the cells with the DNA specific fluorochrome, and then by measuring cellular DNA content with an ELITE ESP flow cytometer (Coulter Inc., Fl.) using UV laser illumination. The Multicycle program (Phoenix Flow Systems) was used to deconvolute the DNA frequency histograms to estimate the frequency of cells in different phases of the cell cycle, and those in apoptosis.

For a further test, the system named is DU-145 cells. Kind of test: MTT cell proliferation assay, DU-145. Format: cell-based. The conditions noted are these: for ED50 values from MTT Assay, DU-145: concentration giving 50% inhibition of cancer cell growth, 72 hours, linear interpolation of FIGS. 1-3. As to the method: (§2) The cells were routinely seeded at 1×10^5 cells/ml in T-75 flasks, allowed to attach overnight, and then treated with the oridonin or the lupulone. At different times, the cells were harvested by trypsinization.
(§3) The inhibitory effect on a cell's ability to divide was determined by an MTT (3-(4,5-dimethylthiazol-2-yl)-2,5-diphenyl tetrazolium bromide) assay. The assay reagents were purchased from Boehringer Mannheim (Roche Diagnosis Corp, Indianapolis, Ind.). […] The MTT assay provides a method whereby cell proliferation can be determined by […]. The protocol for the cell viability assay was provided by Boehringer Mannheim and modified as described below.
(§4) The cells were then incubated at […] and allowed to attach to the plates. After 24 hours, 20 microliter aliquots having varying concentrations of oridonin or lupulone were added to the cell culture. Each aliquot was plated into 3 wells to obtain mean values. […] The plates were incubated at 37° C. in a CO2 incubator for 72 hours. After 72 hours, the culture medium was carefully removed without disturbing the cells and replaced by 100 microliters of fresh cell medium. 10 microliters of MTT was added to each well and the plates were incubated in the CO2 incubator at 37° C. for 4 hours. Afterwards, 100 microliters of sodium dodecylsulfate (SDS) solubilizing reagent (from Boehringer Mannheim) was added to each well. The plates were placed in the CO2 incubator at 37° C. for about 10-14 hours. Afterwards, the cell concentration of each plate was determined by an ELISA Reader (EL800, Bio-Tek Instruments, Inc.) at a wavelength of […]. The percent cell viability was calculated according to the equation below: [formula]
(§5) where V is the percent cell viability, Acontrol is the absorption of the control cells, and Atreated is the absorption of the treated cells.

Test [3] deals with LNCaP cells. Kind of test: MTT cell proliferation assay, LNCaP. Format: cell-based, Human. The following applies: for ED50 values from MTT Assay, LNCaP: concentration giving 50% inhibition of cancer cell growth, 72 hours, linear interpolation of FIGS. 1-3. As to the method: as §2, §3, §4, §5
(In general: Formazan colour is commonly taken as a measure of viable cells.)

A further test deals with Bax. Description: Flow cytometric measurement of Bax protein in LNCaP. Format: cell-based, Human. The following applies: flow cytometry. As to the method:
as §1

For the next test, the system named is MCF-7 cells. Kind of test: MTT cell proliferation assay, MCF-7. Format: cell-based. The following applies: for ED50 values from MTT Assay, MCF-7: concentration giving 50% inhibition of cancer cell growth, 72 hours, linear interpolation of FIGS. 1-3. As to the method: as §2, §3, §4, §5
The next test deals with Bcl-2. Description: Flow cytometric measurement of Bcl-2 protein in LNCaP. Format: cell-based, Human. The following applies: 8.24 uM oridonin, flow cytometry, CTRL 11.3. The protocol: as §1, with “The cells were subsequently added to a 100 μl aliquot of BSA/PBS solution containing 1:50 diluted primary antibody for Bcl-2, Bax (stained LNCaP) and p53. The mixtures were incubated at room temperature in the dark for 1 hr. The cells were subsequently washed twice with PBS-BSA buffer.” left out

The test system of another test is LNCaP and DU-145. Description: Cell growth inhibition of LNCaP and DU-145 by DES (FIG. 14). Format: cell-based. The conditions noted are these: previous study.
The mark [4] stands for this setting: about 5 ug/ml of oridonin, FIG. 1.
The mark [5] stands for this setting: about 100 ug/ml of lupulone, FIG. 2.

Converted amounts (≈) assume the structure as drawn.

Consider oridonin, for which, in the test on LNCaP cells [1], the cell apoptosis entry is reported as “About 6%”. For the same compound, the “cells arrested in the G1 phase” value was “over 60%” with DU-145 cell cycle (DU-145 (so in the source), about 8.20 uM-22 uM of oridonin, FIG. 10); “about 35%” in the test with MCF-7 cell cycle (25 ug/ml); “about 90%” in the test on MCF-7 cell cycle (50 ug/ml); “about 68%” in the test on LNCaP cell cycle (oridonin, FIG. 9b). Also, the “increase in the number of cells arrested in the S phase compared to the control” value with DU-145 cell cycle (1.5 ug/ml of oridonin) is listed as around 16%; in the test on DU-145 cell cycle (3.0 ug/ml of oridonin), “about 30%”. Further, the “cells arrested in the G2M phase” value is recorded as “about 37%” in the test on DU-145 cell cycle (FIG. 9d) and 30-55% in the test on DU-145 cell cycle (about 8.20 uM-22 uM of oridonin, FIG. 10). Also, the results for the “cell cycle arrest phase” value in the test with DU-145 cell cycle (oridonin) and in the test on LNCaP cell cycle (oridonin) were “G2M arrest” and “G1 cell cycle arrest”, respectively. The “increase in p53 concentration” value with p53 (8.2 uM of oridonin) was “Approximately 40%”; in the test with p53 (13.74 uM of oridonin), around 100%. Further, the “increase in the ratio of p53/Bcl-2” value in the test with p53 (8.24uM oridonin, flow cytometry) is listed as 100%. Moreover, the p53/Bcl-2 with p53 (8.24 uM oridonin, flow cytometry, CTRL 1) is reported as 2.0. Moreover, in the test on p53 (8.24 uM oridonin, flow cytometry, CTRL 8.8), the p53 is 12.3. Moreover, in [2], the “ratio of Bax/Bcl-2 by Western blot” value is listed as “increased significantly”. In the test on LNCaP cell cycle (3 ug/ml of oridonin, FIG. 5), the “more cells arrested in the G1 phase compared to cells not exposed” value is listed as “over 25%”. Besides, the “cells in the G1 phase of the cell cycle” value in the test on LNCaP cell cycle (oridonin 3 μg/ml, 24 hr, FIG. 4) is listed as “over 65%”. The “proliferation decreased over that of the control” value in the test on DU-145 cells (setting [4]) is reported as “more than 80%”. For the same compound, in the test with DU-145 cells, the “ED50 values from MTT Assay, DU-145” value came to 3.03 µg/mL. Further, in the test with LNCaP cells [3] (setting [4]), the “proliferation reduced over that of the control” value is “about 75%”. The “ED50 values from MTT Assay, LNCaP” value in the test on LNCaP cells [3] was 2.11 µg/mL. The “increase in the ratio of Bax/Bcl-2” value in the test on Bax (8.24uM of oridonin) is reported as around 75%. The same compound gave a Bax/Bcl-2 in the test with Bax (8.24 uM oridonin, CTRL 1) of 1.8. This compound also returned a Bax in the test with Bax (8.24 uM oridonin, CTRL 11.8) of 14.5. The “ED50 values from MTT Assay, MCF-7” value in the test with MCF-7 cells stood at 1.71 µg/mL. Moreover, in the test with MCF-7 cells (under 15 ug/ml of oridonin, FIG. 3), the “absorbance reading of MTT” value was determined as 0. The Bcl-2 in the test on Bcl-2 is 7.9.
`CC/C(=C(/CC)c1ccc(O)cc1)c1ccc(O)cc1` [DES, reference compound]: the “times more sensitive in inhibiting LNCaP than in inhibiting DU-145” value in the test with LNCaP and DU-145 is “about 2.5 times”. Moreover, the “cell cycle arrest phase” value in the test with DU-145 cell cycle (DES) and in the test on LNCaP cell cycle (DES (30 μM per FIG. 15 legend)) was “G2M phase arrest” in each case.
In the case of `CC(C)=CCC1=C(O)C(CC=C(C)C)(CC=C(C)C)C(=O)C(C(=O)CC(C)C)=C1O` [Lupulone, lupulone], the “effect on cell cycle” value with MCF-7 cell cycle (60 micromolar (25 microgram/milliliter)) was “G1 phase arrest”. Besides, the “effect on cell proliferation” value in the test on MCF-7 cell cycle (120 micromolar (50 microgram/milliliter)) is listed as “complete block of cell proliferation”. For the same compound, the “increase of cells arrested in the G2M phase compared to cells not exposed” value with LNCaP cell cycle (lupulone (50 μg per FIG. 5 legend)) was “about 100%”. Further, the “proliferation decreased compared to the control” value in the test on DU-145 cells (setting [5]) is “more than 55%”; in the test with LNCaP cells [3] (setting [5]), “more than 75%”; in the test on MCF-7 cells (about 100 ug/ml of lupulone, FIG. 3), “more than 85%”. In the test with DU-145 cells, the “ED50 values from MTT Assay, DU-145” value worked out at 89.7 µg/mL (≈ 216 µM). Further, the “ED50 values from MTT Assay, LNCaP” value in the test with LNCaP cells [3] was 36.53 µg/mL (≈ 88.1 µM). Further, in the test on MCF-7 cells, the “ED50 values from MTT Assay, MCF-7” value is 56.62 µg/mL (≈ 137 µM).
